Values of other authors as cited in US20060287301A1, “Novel formulations for phenothiazines, including fluphenazine and its derivatives” (priority 2005, published 2006).
Where a name gives a salt, the structure may show the parent alone. Read-outs that look alike come from different tables or passages of the source.

Settings: words only

| solubility in water (HCl) | solubility in water | Compound |
| --- | --- | --- |
| poorly soluble | – | OCCN1CCN(CCCN2c3ccccc3Sc3ccc(C(F)(F)F)cc32)CC1 [Fluphenazine HCl] |
| – | marginally water soluble | OCCN1CCN(CCCN2c3ccccc3Sc3ccc(C(F)(F)F)cc32)CC1 [Fluphenazine, fluphenazine] |
